Test: Pharmacokinetic study in rats, pulmonary insufflation versus intravenous injection
Format: in vivo, male Sprague Dawley rats
Details: 0.8 mg/kg single dose; lung samples 10-240 minutes post administration; FIG. 5
Procedure: Pharmacokinetic studies in rats with Compound I crystalline composite (XC) dry powders—Insufflation studies were performed in rats to deliver doses of dry powders of Compound I, a protein kinase antagonist. The study was performed to determine the pharmacokinetics profile of Compound I dry powders made by the process as described above following pulmonary insufflation, or intravenous injection of a single dose of the composition administered in solution to male Sprague Dawley (Charles River Laboratories) adult rats, weighing between 200 g and 250 g at the time of the study. Dry powder comprising 22.1 wt % actual drug content were used and tested at 1 mg/ml in solution to deliver a dose of 0.8 mg/kg to 18 rats in each study group. Rats acclimatized and anesthetized prior to experimentation. Lung and blood samples were taken from the rats at 10, 20, 30, 120, and 240 minutes, post drug administration.

Cc1cccc(-n2ncc(C)c2-c2cc3cnccc3s2)n1 [Compound I, 2-[4-methyl-1-(6-methylpyridin-2-yl)-1H-pyrazol-5-yl]thieno-[3,2-c]pyridine]
content of Compound I in rat lung, insufflation versus IV injection: a higher content of Compound I was detected in rat lung after insufflation versus IV injection for a longer period of time
